Results: patent US20240018120A1, “MAGL INHIBITORS” (H. LUNDBECK A/S, priority 2020, published 2024)

Experiments:
[1] = tested on: cryopreserved human hepatocytes; experiment: In vitro human hepatocyte stability; assay type: in vitro ADME; details: human hepatocytes 0.5×10^6 cells/mL, 1 μM
Method in brief: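 Test articles at 1 μM incubated in duplicate with pooled-donor cryopreserved human hepatocytes (0.5×10^6 cells/mL), sampled from 0 to 240 min and quantified by LC-MS/MS after acetonitrile quench. In vitro t½ taken from the depletion slope (−0.693/k) and scaled to unbound CLint in mL/min/kg, mean of duplicates.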

MAGL [2] = target: T1, MAGL (Homo sapiens, UniProt Q99685); experiment: In vitro competitive activity-based protein profiling, PC3 human cell membrane proteomes; assay type: biochemical; set-up: endogenous in cells; host or cells: PC3 human cells (membrane proteome); details: human PC3 membrane proteome
T1 sequence (Q99685 1-303): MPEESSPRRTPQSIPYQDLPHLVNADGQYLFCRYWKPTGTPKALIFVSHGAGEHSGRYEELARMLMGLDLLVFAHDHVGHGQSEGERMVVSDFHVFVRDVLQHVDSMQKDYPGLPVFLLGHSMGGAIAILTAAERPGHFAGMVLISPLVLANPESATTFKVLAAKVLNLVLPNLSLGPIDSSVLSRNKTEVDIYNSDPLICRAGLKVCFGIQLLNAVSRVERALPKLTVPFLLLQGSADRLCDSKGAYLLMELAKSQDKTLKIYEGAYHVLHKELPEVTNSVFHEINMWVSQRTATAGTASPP
Method in brief: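 Competitive ABPP in PC3 membrane proteome (2.0 mg/mL protein): inhibitors preincubated 30 min at 37° C, then JW912-Bodipy probe added for 30 min at room temperature. MAGL band fluorescence after SDS-PAGE normalised to DMSO; IC50 from 4-parameter sigmoidal fit.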

[3] = tested on: maximal electroshock seizure threshold (MEST) model; experiment: Maximal electroshock seizure threshold (MEST) model in the rat; assay type: in vivo; details: 10 mg/kg p.o., 240 min pre-treatment
Experimental: In the MEST model, a low-intensity electrical current of high frequency and short duration is applied to induce tonic convulsions.
Animals were randomly assigned to vehicle, compound treatment or Lamotrigine dose groups. Animals were dosed at 5 mL/kg according to treatment groups (n=12 or 16/group), with either vehicle (0.5% MC) p.o. for Example 6, vehicle (10% HP-b-CD) for Example 8, test compound at 10 mg/kg p.o. 240 min pre-treatment time, or Lamotrigine p.o. 360 min pre-treatment time. Rats were individually assessed for production of a tonic hind limb extensor seizure following a single corneally delivered electroshock of 0.3 second duration, using an ‘up and down method’ of shock titration (Kimball A W et al., 1957). Thus, the first rat within a treatment group was given a shock at the expected or estimated CC50 current (current producing tonic hind limb extensor seizures in 50% of animals). […] This procedure was continued for all rats within a treatment group. Induction of seizure was measured as an all-or-nothing effect scored as either present (+) or absent (0) for each animal. […]
Significant differences between drug-treated animals and controls were assessed according to Litchfield and Wilcoxon (1949) or One-Way ANOVA followed by Dunnett's multiple comparisons test.

MAGL [4] = target: T1, MAGL; experiment: In vitro competitive substrate hydrolysis enzyme activity assay (pNPA), HEK293 cell lysates; assay type: biochemical; set-up: expressed in transfected cells; host or cells: HEK293; details: HEK293 lysate
Method in brief: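 Lysates of HEK293 cells expressing human MAGL (~1.2 μg protein) preincubated 30 min at 25° C with inhibitor in 50 mM HEPES pH 7.0, 200 mM KCl, 1 mM EDTA. pNPA substrate then added (2× stock 2.5 mM), and A405 followed for 20 min at 25° C. Rates normalized to DMSO, and IC50 from 4-parameter fit.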

Compound: O=C(Nc1cccnn1)[C@H]1CC12CCN(C(=O)OC(C(F)(F)F)C(F)(F)F)CC2 [Example 6, 1,1,1,3,3,3-Hexafluoropropan-2-yl (S)-1-(pyridazin-3-ylcarbamoyl)-6-azaspiro[2.5]octane-6-carboxylate]
- Scaled-up unbound CLint [1]: 5.79 mL/min/kg
- IC50 (MAGL [2]): 0.0046 µM
- anticonvulsant activity in the MEST (seizure threshold CC50) [3]: anticonvulsant activity
- IC50 (MAGL [4]): 0.00826 µM
